Counter-ions that a name gives are not always drawn.
How the values were obtained:
[1] = tested on: nausea and vomiting associated with administration of the test drug; assay: Prescriptions for nausea and vomiting associated with administration of the test drug; assay type: in vivo, human; conditions: summary of Table 18
From the text: The administration period and efficacy of various drugs to treat nausea and vomiting associated with administration of the test drug were studied.

[2] = conventional daily administration; osteoporosis patients having moderate renal dysfunction; Non-patent Reference 32; cited from earlier work
[3] = 20 μg/day, Non-patent Reference 1, cited from earlier work
[4] = tested on: patients having prednisone-induced osteoporosis complicated by arthralgia; conditions: daily administration, Non-patent References 23 and 24; cited from earlier work

## NC(N)=Nc1nc(CSCCC(N)=NS(N)(=O)=O)cs1 [Gaster D, famotidine]
[1]
  Effect on nausea and vomiting associated with administration of the test drug (summary): effective

## PTH: PTH (parathyroid hormone) in conventional daily administration (20 μg/day), results from cited literature
[2]
  Patients with serum calcium exceeding 11.0 mg/mL after administration: 11.76%
[3]
  Patients with persistent hypercalcemia: 3%
[3]; blood samples 4 to 6 hours after administration
  Patients with hypercalcemia: 11%

## CCOc1cc(N)c(Cl)cc1C(=O)NCC1CN(Cc2ccc(F)cc2)CCO1 (stereo not drawn) [Gasmotin, mosapride citrate]
[1]
  Effect on nausea and vomiting associated with administration of the test drug (summary): effective

## O=c1[nH]c2ccccc2n1CCCN1CCC(n2c(=O)[nH]c3cc(Cl)ccc32)CC1 [Nauzelin, domperidone]
[1]
  Effect on nausea and vomiting associated with administration of the test drug (summary): effective

## CCN(CC)CCNC(=O)c1cc(Cl)c(N)cc1OC [Primperan, metoclopramide]
[1]
  Effect on nausea and vomiting associated with administration of the test drug (summary): effective

## CC[C@H](C)[C@H](NC(=O)[C@H](CCC(=O)O)NC(=O)[C@H](CO)NC(=O)[C@@H](NC(=O)[C@@H](N)CO)C(C)C)C(=O)N[C@@H](CCC(N)=O)C(=O)N[C@@H](CC(C)C)C(=O)N[C@@H](CCSC)C(=O)N[C@@H](Cc1cnc[nH]1)C(=O)N[C@@H](CC(N)=O)C(=O)N[C@@H](CC(C)C)C(=O)NCC(=O)N[C@@H](CCCCN)C(=O)N[C@@H](Cc1cnc[nH]1)C(=O)N[C@@H](CC(C)C)C(=O)N[C@@H](CC(N)=O)C(=O)N[C@@H](CO)C(=O)N[C@@H](CCSC)C(=O)N[C@@H](CCC(=O)O)C(=O)N[C@@H](CCCN=C(N)N)C(=O)N[C@H](C(=O)N[C@@H](CCC(=O)O)C(=O)N[C@@H](Cc1c[nH]c2ccccc12)C(=O)N[C@@H](CC(C)C)C(=O)N[C@@H](CCCN=C(N)N)C(=O)N[C@@H](CCCCN)C(=O)N[C@@H](CCCCN)C(=O)N[C@@H](CC(C)C)C(=O)N[C@@H](CCC(N)=O)C(=O)N[C@@H](CC(=O)O)C(=O)N[C@H](C(=O)N[C@@H](Cc1cnc[nH]1)C(=O)N[C@@H](CC(N)=O)C(=O)N[C@@H](Cc1ccccc1)C(=O)O)C(C)C)C(C)C [Forteo, teriparatide (rDNA origin) injection]
[4]
  Bone strengthening effect compared with Fosamax: stronger bone strengthening effect than Fosamax

## Cc1c(OCC(F)(F)F)ccnc1C[S+]([O-])c1nc2ccccc2[nH]1 (stereo not drawn) [Takepron OD, lansoprazole]
[1]
  Effect on nausea and vomiting associated with administration of the test drug (summary): effective
